Assay [1] concerns the target T1, human FGFR3 wild type enzyme (cytoplasmic domain) (Homo sapiens, UniProt P22607).
T1 construct: human FGFR3 wild type enzyme (cytoplasmic domain, from Carna Biosciences); purchased Carna Biosciences
The experiment in a line: FGFR3 wild type mobility shift assay (enzymatic assay). The format is biochemical. Conditions: 75 μM ATP, 50 minutes at 30° C, Caliper EZ reader II. From the text:
FGFR3 Wild Type Mobility Shift Assay (Enzymatic Assay)

In assay [2] the test system is NIH/3T3 cells transfected with control vector. The assay is described as follows: NIH/3T3 mock cell proliferation assay (counter assay, CellTiter Glo). The format is cell-based. Conditions: Mus musculus, top concentration 30 μM, counter assay for general toxicity, read-out: NIH/3T3 MOCK CTG (IC50). The method, then:
NIH/3T3 Mock Cell Proliferation Assay
In day 1, 90 μL of cell suspension (NIH/3T3 cells transfected with the same control vector as in the above two proliferation assays) (total 30,000 cells per well in growth medium (DMEM containing 1% Glutamax, 10% FBS and 1% Pen/Strep)) was seeded in a 96-well plate and then incubated overnight at 37° C. and 5% CO2. In day 2, 10 μL of growth medium containing 10-fold stock solution of testing compound was added into cell cultures (9 dose points with 3× serial dilution, starting with 30 μM, 0.3% DMSO final). After 72-hr incubation at 37° C. and 5% CO2, in day 5 a volume of 50 μL CellTiter Glo (CTG) reagent was added into cell-containing 96-well plate and the plate was incubated at room temperature for 10 minutes before RLUs (relative light unit) were measured on a microplate reader with luminescence detection module.
Background: ATP-based viability assays read luminescence as a measure of living cells.

Assay [3] addresses T2, NIH/3T3 cells overexpressing FGFR3 WT-TACC3 fusion protein (Homo sapiens, UniProt P22607).
T2 construct: NIH/3T3 FGFR3 WT-TACC3 CTG (IC50); other: 72-hr incubation, CellTiter Glo, top concentration 10 μM; fused on or other part: Q9Y6A5 (Transforming acidic coiled-coil-containing protein 3)
The experiment in a line: NIH/3T3 FGFR3 WT-TACC3 cell proliferation assay (CellTiter Glo). The format is cell-based. Conditions: 72-hr incubation, top concentration 10 μM, read-out: NIH/3T3 FGFR3 WT-TACC3 CTG (IC50). The procedure:
NIH/3T3 FGFR3 WT-TACC3 Cell Proliferation Assay
In day 1, 90 μL of cell suspension (NIH/3T3 cells overexpressing FGFR3 WT-TACC3 fusion protein) (total 30,000 cells per well in growth medium (DMEM containing 1% Glutamax, 10% FBS and 1% Pen/Strep)) was seeded in a 96-well plate and then incubated overnight at 37° C. and 5% CO2. […] After 72-hr incubation at 37° C. and 5% CO2, in day 5 a volume of 50 μL CellTiter Glo (CTG) reagent was added into cell-containing 96-well plate and the plate was incubated at room temperature for 10 minutes before RLUs (relative light unit) were measured on a microplate reader with luminescence detection module.

Where a name gives a salt, the structure may show the parent alone. Read-outs that look alike come from different tables or passages of the source.

T1 sequence (P22607 397-806 limits assumed): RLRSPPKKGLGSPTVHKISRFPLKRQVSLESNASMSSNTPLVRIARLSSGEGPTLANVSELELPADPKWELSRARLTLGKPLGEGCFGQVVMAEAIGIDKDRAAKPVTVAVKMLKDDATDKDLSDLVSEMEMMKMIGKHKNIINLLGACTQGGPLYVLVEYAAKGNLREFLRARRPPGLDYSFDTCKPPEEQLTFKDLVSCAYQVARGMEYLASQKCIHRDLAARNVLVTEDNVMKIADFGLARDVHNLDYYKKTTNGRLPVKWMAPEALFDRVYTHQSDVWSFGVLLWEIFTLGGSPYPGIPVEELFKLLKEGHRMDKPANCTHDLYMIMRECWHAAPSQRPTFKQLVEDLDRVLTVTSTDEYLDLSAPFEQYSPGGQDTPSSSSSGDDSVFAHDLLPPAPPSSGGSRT
T2 sequence (P22607 whole entry, change not shown, the tested form may be a part): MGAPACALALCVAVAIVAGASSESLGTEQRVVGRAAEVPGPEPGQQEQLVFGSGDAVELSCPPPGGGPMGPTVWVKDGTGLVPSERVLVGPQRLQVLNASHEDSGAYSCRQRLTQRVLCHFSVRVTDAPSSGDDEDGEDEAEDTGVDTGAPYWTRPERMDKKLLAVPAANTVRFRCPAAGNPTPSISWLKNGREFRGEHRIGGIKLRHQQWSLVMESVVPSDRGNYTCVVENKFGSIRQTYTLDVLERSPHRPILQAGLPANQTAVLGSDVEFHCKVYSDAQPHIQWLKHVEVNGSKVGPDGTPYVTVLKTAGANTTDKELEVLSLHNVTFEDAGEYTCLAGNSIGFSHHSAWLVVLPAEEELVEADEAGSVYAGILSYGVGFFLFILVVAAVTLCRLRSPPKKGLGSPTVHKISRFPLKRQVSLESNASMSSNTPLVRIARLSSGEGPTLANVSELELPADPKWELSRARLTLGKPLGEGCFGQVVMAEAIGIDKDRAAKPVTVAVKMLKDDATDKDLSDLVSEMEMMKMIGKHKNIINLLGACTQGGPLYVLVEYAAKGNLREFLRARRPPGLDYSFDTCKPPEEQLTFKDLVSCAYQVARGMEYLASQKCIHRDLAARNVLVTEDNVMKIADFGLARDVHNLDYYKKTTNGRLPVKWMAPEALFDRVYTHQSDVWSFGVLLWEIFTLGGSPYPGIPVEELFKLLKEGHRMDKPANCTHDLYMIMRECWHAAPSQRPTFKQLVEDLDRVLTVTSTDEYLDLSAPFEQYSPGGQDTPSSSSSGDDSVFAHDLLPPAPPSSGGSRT

With `CC(Nc1c(-c2nc3cc(C(F)(F)F)c(N4CCOCC4)cc3[nH]2)c(=O)[nH]c2cn(C)nc12)c1ncccn1` (racemic) [Compound 19, (Rac)-2-Methyl-6-(6-morpholino-5-(trifluoromethyl)-1H-benzo[d]imidazol-2-yl)-7-((1-(pyrimidin-2-yl)ethyl)amino)-2H-pyrazolo[4,3-b]pyridin-5(4H)-one], the IC50 in assay [1] was determined as 8.17 nM; in assay [2] (NIH3T3, 72 h, 72-hr incubation) it was 3990 nM. In addition, the GI50 in assay [3] came to 21.5 nM.

For `C[C@H](Nc1c(-c2nc3ccc(N4CCO[C@@H](C(F)(F)F)C4)cc3[nH]2)c(=O)[nH]c2cn(C)nc12)c1ncccn1` (relative stereo) [Compound 7, 2-Methyl-7-(((S*)-1-(pyrimidin-2-yl)ethyl)amino)-6-(6-((R*)-2-(trifluoromethyl)-morpholino)-1H-benzo[d]imidazol-2-yl)-2H-pyrazolo[4,3-b]pyridin-5(4H)-one], the IC50 turned out to be 0.399 nM in assay [1] and 1080 nM in assay [2] (NIH3T3, 72 h, 72-hr incubation). Moreover, the GI50 in assay [3] was 10.5 nM.

For the compound `C[C@H](Nc1c(-c2nc3ccc(N4CCO[C@H](C(F)(F)F)C4)cc3[nH]2)c(=O)[nH]c2cn(C)nc12)c1ncccn1` (relative stereo) [Compound 8, 2-Methyl-7-(((S*)-1-(pyrimidin-2-yl)ethyl)amino)-6-(6-((S*)-2-(trifluoromethyl)-morpholino)-1H-benzo[d]imidazol-2-yl)-2H-pyrazolo[4,3-b]pyridin-5(4H)-one], the IC50 in assay [1] came out at 0.542 nM; in assay [2] (NIH3T3, 72 h, 72-hr incubation), 444 nM. In addition, the GI50 in assay [3] worked out at 6.78 nM.

In the case of `CC[C@H](Nc1c(-c2nc3ccc(N4CCOCC4)cc3[nH]2)c(=O)[nH]c2cn(CC)nc12)c1ncccn1` (single isomer, unassigned) [Compound 3, (S*)-2-ethyl-6-(6-morpholino-1H-benzo[d]imidazol-2-yl)-7-((1-(pyrimidin-2-yl)propyl)-amino)-2H-pyrazolo[4,3-b]pyridin-5(47f)-one], the IC50 in assay [1] was 88.3 nM.

Regarding `CCn1cc2[nH]c(=O)c(-c3nc4ccc(N5CCOCC5)cc4[nH]3)c(NC(C)c3cocn3)c2n1` (single isomer, unassigned) [Compound 4A, (S*)-2-ethyl-6-(6-morpholino-1H-benzo[d]imidazol-2-yl)-7-((1-(oxazol-4-yl)ethyl)amino)-2H-pyrazolo[4,3-b]pyridin-5(4H)-one], the IC50 in assay [1] came to 3.77 nM; in assay [2] (NIH3T3, 72 h, 72-hr incubation) it was 288 nM. For the same compound, in assay [3], the GI50 was 26.1 nM.

`CCn1cc2[nH]c(=O)c(-c3nc4ccc(N5CCOCC5)cc4[nH]3)c(NC(C)c3cocn3)c2n1` (single isomer, unassigned) [Compound 4B, (R*)-2-ethyl-6-(6-morpholino-1H-benzo[d]imidazol-2-yl)-7-((1-(oxazol-4-yl)ethyl)-amino)-2H-pyrazolo[4,3-b]pyridin-5(4H)-one]: the IC50 in assay [1] amounted to 657 nM.

Regarding `CC(Nc1c(-c2nc3cc(C(F)(F)F)c(N4CCOCC4)cc3[nH]2)c(=O)[nH]c2cn(C)nc12)c1cocn1` (single isomer, unassigned) [Compound 10, (S*)-2-methyl-6-(6-morpholino-5-(trifluoromethyl)-1H-benzo[d]imidazol-2-yl)-7-((1-(oxazol-4-yl)ethyl)amino)-2H-pyrazolo[4,3-b]pyridin-5(4H)-one], in assay [2] (NIH3T3, 72-hr incubation), the IC50 was determined as 18400 nM.

As for `CC(Nc1c(-c2nc3ccc(N4C[C@@H](C)O[C@H](C)C4)cc3[nH]2)c(=O)[nH]c2cn(C)nc12)c1ncccn1` (single isomer, unassigned) [Compound 12, 6-(6-((2R,6R)-2,6-dimethylmorpholino)-1H-benzo[d]imidazol-2-yl)-2-methyl-7-(((S*)-1-(pyrimidin-2-yl)ethyl)amino)-2H-pyrazolo[4,3-b]pyridin-5(4H)-one], the IC50 in assay [2] (NIH3T3, 72-hr incubation) came to 454 nM.

For the compound `CC(Nc1c(-c2nc3ccc(N4CCCCC4)c(F)c3[nH]2)c(=O)[nH]c2cn(C)nc12)c1ncccn1` (single isomer, unassigned) [Compound 16, (R*)-6-(7-fluoro-6-(piperidin-1-yl)-1H-benzo[d]imidazol-2-yl)-2-methyl-7-((1-(pyrimidin-2-yl)ethyl)amino)-2H-pyrazolo[4,3-b]pyridin-5(4H)-one], the IC50 in assay [1] stood at 38.1 nM.

As to `C[C@H](Nc1c(-c2nc3c(F)cc(N4CCOCC4)c(F)c3[nH]2)c(=O)[nH]c2cn(C)nc12)c1ncccn1` (single isomer, unassigned) [Compound 17, (S*)-6-(4,7-difluoro-6-morpholino-1H-benzo[d]imidazol-2-yl)-2-methyl-7-((1-(pyrimidin-2-yl)ethyl)amino)-2H-pyrazolo[4,3-b]130pyridine-5(4H)-one], in assay [1], the IC50 stood at 46.5 nM.

In the case of `CC(Nc1c(-c2nc3cc(C(F)(F)F)c(N4CCOCC4)cc3[nH]2)c(=O)[nH]c2cn(C)nc12)c1ncccn1` (single isomer, unassigned) [Compound 20, (S*)2-Methyl-6-(6-morpholino-5-(trifluoromethyl)-1H-benzo[d]imidazol-2-yl)-7-((1-(pyrimidin-2-yl)ethyl)amino)-2H-pyrazolo[4,3-b]pyridin-5(4H)-one], the IC50 in assay [1] is 1240 nM.

As to `COCC(Nc1c(-c2nc3c(F)cc(N4CCOCC4)cc3[nH]2)c(=O)[nH]c2cn(C)nc12)c1ncccn1` (single isomer, unassigned) [Compound 30, (R*)-6-(4-fluoro-6-morpholino-1H-benzo[d]imidazol-2-yl)-7-((2-methoxy-1-(pyrimidin-2-yl)ethyl)amino)-2-methyl-2H-pyrazolo[4,3-b]pyridin-5(4H)-one], in assay [1], the IC50 stood at 469 nM.

Take `C[C@H](Nc1c(-c2nc3ccc(N4CCN(C)CC4)cc3[nH]2)c(=O)[nH]c2cn(C)nc12)c1ncccc1C(F)(F)F` (single isomer, unassigned) [Compound 31, (S*)-2-methyl-6-(6-(4-methylpiperazin-1-yl)-1H-benzo[d]imidazol-2-yl)-7-((1-(3-(trifluoromethyl)pyridin-2-yl)ethyl)amino)-2H-pyrazolo[4,3-b]pyridin-5(4H)-one 0.3 formate]: the IC50 in assay [1] was determined as 120 nM.

Regarding `CC(Nc1c(-c2nc3ccc(N4CCCCC4)cc3[nH]2)c(=O)[nH]c2cn(C)nc12)c1ncccn1` (single isomer, unassigned) [Compound 35, (R*)-2-methyl-6-(6-(piperidin-1-yl)-1H-benzo[d]imidazol-2-yl)-7-((1-(pyrimidin-2-yl)-ethyl)amino)-2H-pyrazolo[4,3-b]pyridin-5(4H)-one], the IC50 in assay [1] stood at 39.2 nM.

As to `CC(Nc1c(-c2nc3ccc(OC4CCOCC4)cc3[nH]2)c(=O)[nH]c2cn(C)nc12)c1cocn1` (single isomer, unassigned) [Compound 37, (R*)-2-methyl-7-((1-(oxazol-4-yl)ethyl)amino)-6-(6-((tetrahydro-2H-pyran-4-yl)oxy)-1H-benzo[d]imidazol-2-yl)-2H-pyrazolo[4,3-b]pyridin-5(4H)-one], the IC50 in assay [1] was 71.7 nM.

As to `CCC(Nc1c(-c2nc3ccc(N4CCOCC4)cc3[nH]2)c(=O)[nH]c2cn(C)nc12)c1ncccn1` (single isomer, unassigned) [Compound 40, (R*)-2-methyl-6-(6-morpholino-1H-benzo[d]imidazol-2-yl)-7-((1-(pyrimidin-2-yl)-propyl)amino)-2H-pyrazolo[4,3-b]pyridin-5(4H)-one], in assay [1], the IC50 was 531 nM.

Consider `COc1cc(N2CCOCC2)cc2[nH]c(-c3c(NC(C)c4ncccn4)c4nn(C)cc4[nH]c3=O)nc12` (single isomer, unassigned) [Compound 50, (R*)-6-(4-methoxy-6-morpholino-1H-benzo[d]imidazol-2-yl)-2-methyl-7-((1-(pyrimidin-2-yl)ethyl)amino)-2,4-dihydro-5H-pyrazolo[4,3-b]pyridin-5-one], for which, in assay [1], the IC50 is 95.7 nM.

Turning to `Cc1cc2nc(-c3c(N[C@@H](C)c4cocn4)c4nn(C)cc4[nH]c3=O)[nH]c2cc1N1CCOCC1` [Compound 55, (S)-2-methyl-6-(5-methyl-6-morpholino-1H-benzo[d]imidazol-2-yl)-7-((1-(oxazol-4-yl)-ethyl)amino)-2H-pyrazolo[4,3-b]pyridin-5(4H)-one], the IC50 in assay [1] turned out to be 811 nM.

Consider `C[C@H](Nc1c(-c2nc3cnc(N4CCOCC4)cc3[nH]2)c(=O)[nH]c2cn(C)nc12)c1cocn1` [Compound 56, (S)-2-methyl-6-(6-morpholino-1H-imidazo[4,5-c]pyridin-2-yl)-7-((1-(oxazol-4-yl)ethyl)-amino)-2,4-dihydro-5H-pyrazolo[4,3-b]pyridin-5-one], for which the IC50 in assay [1] came out at 156 nM.

These data come from patent US11691970B2, “Pyrazolopyridinone compounds” (Janssen Pharmaceutica NV, priority 2017, dated 2023).
